We go through 17 compounds from patent US8822430B2 (Gilead Sciences, Inc., priority 2009, dated 2014).

As usually defined, the EC50 is the concentration at which the effect is half-maximal.

This assay relates to HCV 1b RLuc cells (dicistronic genotype 1b Con1 replicon). As to the kind of experiment: Renilla luciferase (RLuc)-based HCV replicon reporter assay. Conditions: Hepatitis C virus, 72 h, HCV 1b RLuc replicon, 72 hours; read-out: Activity (antiviral potency [EC50]). Type of assay: cell-based, HCV genotype 1b. The procedure: Antiviral potency (EC50) was determined using a Renilla luciferase (RLuc)-based HCV replicon reporter assay. To perform the assay, HCV 1b RLuc cells (harboring a dicistronic genotype 1b Con1 replicon that encodes a RLuc reporter), or HCV 1a RLuc cells (harboring a dicistronic genotype 1a H77 replicon that encodes a RLuc reporter), were dispensed into 384-well plates. Compounds were re-suspended in DMSO at a concentration of 10 mM and serially diluted in DMSO using an automated pipeting instrument. Serially diluted compounds were mixed with cell culture media and added to the seeded cells. DMSO was used as a negative (solvent) control, and the protease inhibitor ITMN-191 was included at a concentration >100×EC50 as a positive control. 72 hours later, cells were lysed and Renilla luciferase activity quantified as recommended by the manufacturer (Promega-Madison, Wis.). Non-linear regression was performed to calculate EC50 values.
Biological data (antiviral potency [EC50] was determined using a Renilla luciferase (RLuc)-based HCV replicon reporter assay—HCV 1b RLuc) for representative compounds of the invention is provided in the following table. These compounds can be prepared using procedures similar to those described above.
On the technique in general: In antiviral work, replicon cells carry a viral genome segment that copies itself.
For the compound `COC(=O)N[C@H](C(=O)N1CCC[C@H]1c1ncc(-c2ccc(-c3cnc([C@@H]4CCCN4C(=O)[C@@H](NC(=O)OC)C(C)C)[nH]3)cc2)[nH]1)C(C)C`, the EC50 worked out at 1220 pM.
The result for `COC(=O)N[C@H](C(=O)N1CCC[C@H]1c1ncc(-c2ccc(-c3ccc(-c4cnc([C@@H]5CN(C(=O)OC(C)(C)C)CN5C(=O)[C@@H](NC(=O)OC)C(C)C)[nH]4)cc3)cc2)[nH]1)C(C)C` reads 5 pM; that for `COC(=O)N[C@H](C(=O)N1CCC[C@H]1c1ncc(-c2ccc(-c3ccc4cc(-c5cnc([C@@H]6CCCN6C(=O)[C@@H](NC(=O)OC)C(C)C)[nH]5)ccc4c3)cc2)[nH]1)C(C)C`, 4.7 pM.
For `COC(=O)N[C@H](C(=O)N1CCC[C@H]1c1ncc(-c2ccc3c(c2)Sc2cc(-c4cnc([C@@H]5CCCN5C(=O)[C@@H](NC(=O)OC)C(C)C)[nH]4)ccc2S3)[nH]1)C(C)C` the value was 349 pM.
On to `COC(=O)N[C@H](C(=O)N1CCC[C@H]1c1ncc(-c2ccc3c(c2)Sc2ccc(-c4cnc([C@@H]5CCCN5C(=O)[C@@H](NC(=O)OC)C(C)C)[nH]4)cc2S3)[nH]1)C(C)C`, for which the 50% effective concentration (EC50) was found to be 5.8 pM.
With `CNC(=O)O[C@H](C(=O)N1CCC[C@H]1c1ncc(-c2ccc(C#Cc3ccc(-c4cnc([C@@H]5CCCN5C(=O)[C@@H](NC(=O)OC)C(C)C)[nH]4)cc3)cc2)[nH]1)C(C)C`, the half-maximal effective concentration (EC50) is 127 pM.
For `COC(=O)N[C@H](C(=O)N1CCC[C@H]1c1ncc(-c2ccc(C#Cc3ccc(-c4cnc([C@@H]5CN(C(=O)OC(C)(C)C)CCN5C(=O)[C@@H](NC(=O)OC)C(C)C)[nH]4)cc3)cc2)[nH]1)C(C)C`, the EC50 was 4730 pM.
For `COC(=O)N[C@H](C(=O)N1CCC[C@H]1c1ncc(-c2ccc(C#Cc3ccc(-c4cnc([C@@H]5CN(C(=O)OC(C)(C)C)CN5C(=O)[C@@H](NC(=O)OC)C(C)C)[nH]4)cc3)cc2)[nH]1)C(C)C` the value was 318 pM.
For `COC(=O)N[C@H](C(=O)N1CCC[C@H]1c1ncc(-c2ccc(C#CC#Cc3ccc(-c4cnc([C@@H]5CCCN5C(=O)[C@@H](NC(=O)OC)C(C)C)[nH]4)cc3)cc2)[nH]1)C(C)C` the value was 384 pM; for `COC(=O)N[C@H](C(=O)N1CCC[C@H]1c1ncc(-c2ccc(C#Cc3ccc(-c4cnc([C@@H]5CC(F)(F)CN5C(=O)[C@@H](NC(=O)OC)C(C)C)[nH]4)cc3)cc2)[nH]1)C(C)C`, 9.1 pM.
As to `COC(=O)N[C@H](C(=O)N1CCC[C@H]1c1ncc(-c2ccc(C#Cc3ccc(-c4cnc([C@@H]5CNCCN5C(=O)[C@@H](NC(=O)OC)C(C)C)[nH]4)cc3)cc2)[nH]1)C(C)C`, the half-maximal effective concentration (EC50) was 201 pM.
For `COC(=O)N[C@H](C(=O)N1CCC[C@H]1c1ncc(-c2ccc(C#Cc3ccc(-c4cnc([C@@H]5CN(C(C)=O)CN5C(=O)[C@@H](NC(=O)OC)C(C)C)[nH]4)cc3)cc2)[nH]1)C(C)C` the value was 40.3 pM; for `COC(=O)N[C@H](C(=O)N1CCC[C@H]1c1ncc(-c2ccc(C#Cc3ccc(-c4cnc([C@@H]5CN(C(=O)OC)CN5C(=O)[C@@H](NC(=O)OC)C(C)C)[nH]4)cc3)cc2)[nH]1)C(C)C`, 18.7 pM.
For `COC(=O)N[C@H](C(=O)N1CCCC[C@H]1c1ncc(-c2ccc(C#Cc3ccc(-c4cnc([C@@H]5CCCN5C(=O)[C@@H](NC(=O)OC)C(C)C)[nH]4)cc3)cc2)[nH]1)C(C)C`, the EC50 stood at 22.4 pM.
For `COC(=O)N[C@H](C(=O)N1CCC[C@H]1c1ncc(-c2ccc3cc(-c4ccc5nc([C@@H]6CCCN6C(=O)[C@@H](NC(=O)OC)C(C)C)[nH]c5c4)ccc3c2)[nH]1)C(C)C` the value was 6.7 pM.
The result for `COC(=O)N[C@H](C(=O)N1CCC[C@H]1c1ncc(-c2ccc3c(c2)C(C)(C)c2cc(-c4cnc([C@@H]5CCCN5C(=O)[C@@H](NC(=O)OC)C(C)C)[nH]4)ccc2-3)[nH]1)C(C)C` reads 10.2 pM.
In the case of `COC(=O)N[C@H](C(=O)N1CCC[C@H]1c1ncc(-c2ccc3c(c2)CCc2cc(-c4cnc([C@@H]5[C@H]6CC[C@H](C6)N5C(=O)[C@@H](NC(=O)OC)C(C)C)[nH]4)ccc2-3)[nH]1)C(C)C`, the EC50 was 8.8 pM.
